# Legend:
# [1] = tested on: BIRC2 and BIRC3 mRNA; test: mRNA content for BIRC2 and BIRC3 in T cells (qPCR); type: cell-based, human; details: EV-3 10 μM, 24 h
# Description: All treatments were done with T cells for 24 hours.
# Total RNA from compound or DMSO treated T cells (1.5×10^7 cells/group) was isolated using RNeasy Mini Kit (Qiagen) according to manufacturer's protocol. RNA concentration was determined using NanoDrop and adjusted to 1 μg RNA in 15 μL RNAse free water for the reverse transcription reaction. cDNA amplification was done using iScript Reverse Transcription Supermix kit (BioRad) according to manufacturer's instructions. The following PCR settings were used for the reverse transcription reaction: 5 min at 25° C. (priming), 20 min at 46° C. (Reverse transcription), 1 min at 95° C. (RT inactivation), hold at 4° C. qPCR analysis was performed on ABI Real Time PCR System (Applied Biosystems) with the SYBR green Mastermix (Applied Biosystems). Relative gene expression was normalized to actin.
# [2] = tested on: NF-κB; test: NF-κB activation in stimulated T cells (phosphorylation readout); type: cell-based, human; details: 24 h
# Description: All treatments were for 24 h.
# Freshly isolated T cells (2×10^5 cells/well) were harvested and stimulated as described before in a 96-well plate in the presence of DMSO or compounds of interest. Following the overnight treatment, the cells were pelleted in a U-bottom plate, harvested by centrifugation (600 g, 3 min, 4° C.), washed with PBS, and stained with near-IR LIVE/DEAD dye as described above. After the staining, intracellular phospho-NF-κB p65 (Ser536) levels were measured using PE conjugate of phospho-NF-κB p65 (Ser536) (93H1) rabbit antibody (Cell Signaling Technology) according to manufacturer's instructions. Briefly, the cells were washed with PBS and fixed with 4% PFA in PBS (100 μL, 15 min, rt). The cells were washed with PBS again (2×150 μL), placed on ice and permeabilized with 90% MeOH (100 μL/well, slow addition with gentle mixing by pipetting up and down). Following a 30 min incubation on ice, the plate was sealed and stored at −20° C. overnight. The following day, the cells were thawed on ice, washed with PBS (150 μL×2), and stained with PE conjugate of phospho-NF-κB p65 (Ser536) (93H1) rabbit antibody (50 μL, 1:100 dilution in incubation buffer (1% FBS in PBS)) for 1 h at rt in the dark. The cells were then washed with incubation buffer (150 μL×2) and resuspended in PBS for further flow cytometry analysis.
# [3] = target: T1, TMEM173 (Homo sapiens, UniProt Q86WV6); test: TMEM173/STING pathway activation by cGAMP in PBMCs (qPCR, ELISA, Bio-Plex); type: cell-based; details: BPK-25 10 μM
# T1 construct: endogenous in cells; host or cells: primary human T cells
# T1 sequence (Q86WV6 whole entry H232R): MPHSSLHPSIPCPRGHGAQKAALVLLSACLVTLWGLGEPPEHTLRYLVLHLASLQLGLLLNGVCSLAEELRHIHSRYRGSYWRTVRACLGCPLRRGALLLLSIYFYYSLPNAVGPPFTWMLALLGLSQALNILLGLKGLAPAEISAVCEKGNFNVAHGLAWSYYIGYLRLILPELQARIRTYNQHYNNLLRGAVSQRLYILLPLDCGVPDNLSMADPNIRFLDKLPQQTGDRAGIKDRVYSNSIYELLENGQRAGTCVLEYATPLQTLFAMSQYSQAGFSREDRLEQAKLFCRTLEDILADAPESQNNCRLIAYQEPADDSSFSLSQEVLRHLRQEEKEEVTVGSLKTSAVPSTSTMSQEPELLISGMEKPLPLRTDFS
# Description: FIG. 12A is a pie chart showing the fraction of protein targets of active compounds with available crystal structures containing the corresponding liganded cysteine residues. FIG. 12B is a computer-generated model of BPK-21 and BPK-25 interactions with C91 of stimulator of interferon genes protein (STING, or TMEM173). FIG. 12C is a graph of IRF response of THP1-Lucia™ ISG cells. THP-1 Lucia ISG cells were treated with DMSO or BPK-25 in the presence of viral dsDNA (2 μg/mL) for 24 h and the levels of IRF-induced Lucia luciferase were determined using QUANTI-Luc™. Cell viability was measured using CellTiter-Glo™ assay. Luminescence signals for test samples were normalized to DMSO-treated samples and reported as relative light units (RLU)±SEM; n=3/group. […] Relative expression of IL-6, IL-1β, and IP10 (CXCL10) genes was measured by qPCR and normalized to actin. […] GFP-positive cells were further analyzed for CD25 and CD69 expression levels by measuring mean fluorescence intensity of the PE- (PE-CD25) and APC-channels (APC-CD69). […]
# Freshly isolated PBMCs (4×10^6 cells/mL, 1 mL/well), were treated with BPK-25 (10 μM) or vehicle (DMSO) for 6 h in a 24-well plate, after which cGAMP (10 μM) was added to the wells and the cells were incubated for additional 20 h. […] When run on the Bioplex 200 system, […] of supernatant was mixed with 50 μL of beads and quantified against human cytokines standard curves. […]
smiles,measurement,setting,value
O=C(CCl)N1CCN(S(=O)(=O)c2ccc(-c3ccncc3)cc2)CC1 [EV-3],mRNA content for BIRC2 or BIRC3,[1],minimal changes
C=CC(=O)N(Cc1cccc(Cl)c1Cl)c1ccc(Oc2ccccc2)c(C(F)(F)F)c1 [BPK-21],reductions in phosphorylation (NF-κB activation),[2],did not appear to impact
C=CC(=O)N(Cc1cccc(Cl)n1)c1ccc(C(=O)Nc2ccccc2)nc1 [BPK-25],TMEM173 activation by cGAMP in primary human PBMCs,[3],inhibited TMEM173 activation

# — patent US20240131032A1, “AN ACTIVITY-GUIDED MAP OF ELECTROPHILE-CYSTEINE INTERACTIONS IN PRIMARY HUMAN IMMUNE CELLS” (The Scripps Research Institute, priority 2019, published 2024)
